Activity calls are given as the source filed them. The calls are words filed in the database; no cut-off is given here.
Assays:
Influenza A virus [1] = experiment: Antiviral activity against influenza virus clinical strain H3N2 (A/Guangdong/2/2023) infected in MDCK cells assessed as reduction of virus-induced cytopathic effect measured after 2 days incubation; format: functional, organism-based; conditions: 48 h
[2] = Cytotoxicity against human Hep3B cells assessed as cell viability measured after 48 hrs by CCK-8 assay; format: toxicity, cell-based, Hep 3B2
[3] = Tmax in CD-1 mouse at 15 mg/kg, po measured up to 24 hrs by LC-MS/MS analysis; format: ADME, organism-based; conditions: in vivo
[4] = Tmax in CD-1 mouse at 1 mg/kg, iv measured up to 24 hrs by LC-MS/MS analysis; format: ADME, organism-based; conditions: in vivo
[5] = Metabolic stability in mouse liver microsomes assessed as half life measured up to 60 mins by LC-MS/MS analysis; format: ADME, Microsome
[6] = Cytotoxicity against human Huh-7 cells assessed as cell viability measured after 48 hrs by CCK-8 assay; format: toxicity, cell-based
[7] = AUC (0 to infinity) in CD-1 mouse at 1 mg/kg, iv measured up to 24 hrs by LC-MS/MS analysis; format: ADME, organism-based; conditions: CD-1, mouse, in vivo
[8] = Half life in CD-1 mouse at 15 mg/kg, po measured up to 24 hrs by LC-MS/MS analysis; format: ADME, organism-based; conditions: in vivo
HEK293T = experiment: Inhibition of H1N1 influenza virus RdRp extracted for human 293T cells assessed as luminescence signal after 24 hrs incubation by Firefly/Renilla luciferase assay; format: cell-based; conditions: Influenza A virus, dose 0.625-12.5 nM
Influenza A virus [9] = experiment: Antiviral activity against influenza strain A/Aichi/ 2/1968 (H3N2) infected in MDCK cells assessed as reduction of virus-induced cytopathic effect measured after 2 days incubation; format: functional, organism-based; conditions: 48 h
[10] = Cytotoxicity against human 786O cells assessed as cell viability measured after 48 hrs by CCK-8 assay; format: toxicity, cell-based, 786-0
[11] = Metabolic stability in mouse liver microsomes assessed as intrinsic clearance measured up to 60 mins by LC-MS/MS analysis; format: ADME, Microsome; conditions: read-out: CLH
Mus musculus [12] = experiment: In vivo inhibition of polymerase acid protein (PA) protein expression in H1N1 influenza virus infected in BALB/c mouse at 20 to 40 mg/kg single oral dose by Western blot analysis; format: functional, organism-based; conditions: dose 20-40 mg/kg
[13] = MRT (0 to infinity) in CD-1 mouse at 15 mg/kg, po measured up to 24 hrs by LC-MS/MS analysis; format: ADME, organism-based; conditions: in vivo
[14] = Oral bioavailability in CD-1 mouse at 15 mg/kg measured up to 24 hrs by LC-MS/MS analysis; format: ADME, organism-based; conditions: CD-1, mouse, in vivo
[15] = Selectivity index, ratio of CC50 for dog MDCK cells to EC50 for antiviral activity against influenza strain A/WSN/1933 (H1N1) infected in MDCK cells; format: toxicity, cell-based; conditions: read-out: Selectivity Index
[16] = Cytotoxicity against human HepG2 cells assessed as cell viability measured after 48 hrs by CCK-8 assay; format: toxicity, cell-based
Mus musculus [17] = experiment: In vivo inhibition of […] (PA) mRNA expression in H1N1 influenza virus infected in BALB/c mouse at 20 to 40 mg/kg single oral dose by qRT-PCR analysis; format: functional, organism-based; conditions: dose 20-40 mg/kg
[18] = MRT (0 to infinity) in CD-1 mouse at 1 mg/kg, iv measured up to 24 hrs by LC-MS/MS analysis; format: ADME, organism-based; conditions: in vivo
[19] = Selectivity index, ratio of CC50 for dog MDCK cells to EC50 for antiviral activity against influenza strain A/Aichi/ 2/1968 (H3N2) infected in MDCK cells; format: toxicity, cell-based; conditions: read-out: Selectivity Index
[20] = Half life in CD-1 mouse at 1 mg/kg, iv measured up to 24 hrs by LC-MS/MS analysis; format: ADME, organism-based; conditions: in vivo
Mus musculus [21] = experiment: In vivo inhibition of polymerase acid protein (PA) mRNA expression in H1N1 influenza virus infected in BALB/c mouse at 20 to 40 mg/kg single oral dose by qRT-PCR analysis; format: functional, organism-based; conditions: dose 20-40 mg/kg
Influenza A virus [22] = experiment: Antiviral activity against influenza strain A/WSN/1933 (H1N1) infected in MDCK cells assessed as reduction of virus-induced cytopathic effect measured after 2 days incubation; format: functional, organism-based; conditions: 48 h
[23] = Metabolic stability in human liver microsomes assessed as intrinsic clearance measured up to 60 mins by LC-MS/MS analysis; format: ADME, Microsome; conditions: read-out: CLH
[24] = Cytotoxicity against dog MDCK cells assessed as cell viability measured after 48 hrs by CCK-8 assay; format: toxicity, cell-based, Canis lupus familiaris
[25] = Metabolic stability in human liver microsomes assessed as half life measured up to 60 mins by LC-MS/MS analysis; format: ADME, Microsome
[26] = Cmax in CD-1 mouse at 1 mg/kg, iv measured up to 24 hrs by LC-MS/MS analysis; format: ADME, organism-based; conditions: in vivo
[27] = AUC (0 to infinity) in CD-1 mouse at 15 mg/kg, po measured up to 24 hrs by LC-MS/MS analysis; format: ADME, organism-based; conditions: CD-1, mouse, in vivo
Mus musculus [28] = experiment: In vivo inhibition of […] (PA) protein expression in H1N1 influenza virus infected in BALB/c mouse at 20 to 40 mg/kg single oral dose by Western blot analysis; format: functional, organism-based; conditions: dose 20-40 mg/kg
[29] = Cmax in CD-1 mouse at 15 mg/kg, po measured up to 24 hrs by LC-MS/MS analysis; format: ADME, organism-based; conditions: in vivo

**Q.** What does the source list for `O=C1c2c(O)c(=O)ccn2N([C@@H](c2ccc(F)c(F)c2)c2cccs2)[C@@H]2COCCN12`?
**A.** EC50 (Influenza A virus [1]): 0.00249 µM; CC50 at 48 h [2]: 46.3 µM; Tmax [3]: 0.42 h; Tmax [4]: 4.8 min; half-life [5]: 38.5 h; CC50 at 48 h [6]: 41.6 µM; AUC(0-inf) [7]: 1230 ng·h/mL; half-life [8]: 4.3 h; Activity (HEK293T): Dose-dependent-effect; EC50 (Influenza A virus [9]): 0.00477 µM; CC50 at 48 h [10]: 13.8 µM; CLint scaled [11]: 2.38 mL/min/kg; inhibition (Mus musculus [12]): Active; MRT inf [13]: 2.77 h; bioavailability [14]: 71.6%; selectivity ratio [15]: 18200; CC50 at 48 h [16]: > 50 µM; inhibition (Mus musculus [17]): Active; MRT inf [18]: 2.98 h; selectivity ratio [19]: 7180; half-life [20]: 3.43 h; inhibition (Mus musculus [21]): Active; EC50 (Influenza A virus [22]): 0.00188 µM; CLint scaled [23]: 1.62 mL/min/kg; CC50 at 48 h [24]: 34.2 µM; half-life [25]: 12.8 h; Cmax [26]: 940 ng/mL; AUC(0-inf) [27]: 11100 ng·h/mL; inhibition (Mus musculus [28]): Active; Cmax [29]: 4070 ng/mL

From ChEMBL document CHEMBL6078703, “Discovery of Novel Thiophene-Based Baloxavir Derivatives as Potent Cap-Dependent Endonuclease Inhibitors for Influenza Treatment” (J Med Chem, 2024)
